Literature values, collected in US6231888A, “Local delivery of non steroidal anti inflammatory drugs (NSAIDS) to the colon as a treatment for colonic polyps” (Perio Products Ltd., priority 1998, dated 2001).
One block for each compound: values may come before it.

How the values were obtained:
[1] = test system: COX-2
[2] = test system: colorectal cancer; settings: chronic use
[3] = test system: colonic biopsies; settings: diclofenac-induced colitis
[4] = test system: HT-29 colon adenocarcinoma cells; settings: HT-29 cells
[5] = test system: SW480 colon carcinoma cells
[6] = test system: colonic polyps; settings: daily dose of 300 mg, taken systemically
[7] = test system: sporadic colorectal adenomas; settings: 300 mg or 150 mg daily for one year; polyps 4-12 mm
[8] = test system: colorectal mucosa; settings: FAP patients
[9] = test system: HT-29 colon adenocarcinoma cell line
[10] = test system: COX-1
[11] = test system: colonic microflora
[12] = test system: sporadic colonic polyps

SMILES: Cc1cnc(NC(=O)C2=C(O)c3ccccc3S(=O)(=O)N2C)s1 [Meloxicam]
- COX-2 inhibition [1]: selective COX-2 inhibitor

SMILES: CC(=O)Oc1ccccc1C(=O)O [aspirin]
- Reduction in the incidence of colorectal cancer [2]: 50-70%

SMILES: O=C(O)Cc1ccccc1Nc1c(Cl)cccc1Cl [diclofenac]
- Apoptotic bodies in colonic biopsies [3]: increased levels of apoptotic bodies

SMILES: CN1C(C(=O)Nc2ccccn2)=C(O)c2ccccc2S1(=O)=O [piroxicam]
- COX-2 inhibition [1]: strong inhibitory effect on COX-2

- Time within which plasma concentration exceeds that of sulindac (in vivo, po): four
SMILES: CSc1ccc(/C=C2/C(C)=C(CC(=O)O)c3cc(F)ccc32)cc1 [sulindac sulfide]
- COX-2 inhibition [1]: potent inhibitor of COX-2
- Potency in reducing proliferation and inhibiting the cell cycle vs sulindac [4]: six times more potent than sulindac
- Cell cycle inhibition [5]: induced cell cycle inhibition

- Reduction product formed by colonic microflora [11]: exclusively to sulindac sulfide
- Time of peak plasma concentration (oral tablet): about two
SMILES: CC1=C(CC(=O)O)c2cc(F)ccc2/C1=C\c1ccc([S+](C)[O-])cc1 (stereo not shown) [sulindac]
- Number and size of colonic polyps [6]: significantly decreased
- Regression/progression of sporadic colorectal adenomas [7]: induced regressions and prevented the progression of sporadic colorectal adenomas
- Colonic mucosal apoptosis [8]: increased levels of colonic mucosal apoptosis
- Proliferation [8]: No effects on proliferation
- Apoptosis [9]: induction of apoptosis
- Cell proliferation or differentiation [9]: no evidence of cell proliferation or differentiation
- COX-2 inhibition [1]: weak inhibitor of COX-2
- COX-1 inhibition [10]: mainly exerts an inhibitory effect on COX-1
- Regression of adenomatous polyps [12]: no similar regression of adenomatous polyps
